Reference: patent US20070142433A1, “Angiogenesis-affecting compounds and methods of use thereof” (priority 2004, published 2007)
Counter-ions that a name gives are not always drawn. Like-named read-outs stand apart in the source and are kept apart here.

Experiments:
HUVEC = test: Cell proliferation assay (crystal violet), HUVEC; format: cell-based; conditions: Homo sapiens, 72 hours, OD 595 nm
Method: In order to further confirm the surprising results described above, the compounds were tested in a cell proliferation assay. Crystal violet was used to measure cell proliferation; this basic dye stains cell nuclei and provides a sensitive, rapid evaluation. Light absorption of unstained or destained cell layers is negligible, making it possible to perform cell number measurements in wells.
Six cell types (HUVEC, HDMEC, SMC, Fibroblast, A375 and RENCA) were plated and treated with the compounds in a log2 titration for 72 hours. The optimal cell number for each cell type was determined and optical density (OD) was measured at 595 nm. Each data point was measured in quadruplicate. The assay was stopped after 72 hours and subsequently analyzed.
The OD-value of the plated cells before addition of the compounds was subtracted from all OD-values obtained after treatment. The percentage in relation to control proliferation was then calculated. Negative values therefore represent a count of fewer cells than were plated. The IC50 is given below in Table 1. Results are shown as a percentage in relation to the control proliferation. The IC50 were calculated using GraphPad Prism software (GraphPad Software, Inc.). Perhexiline results are depicted graphically in FIGS. 4A-4C and Erythromycin results in FIGS. 5A-5C. […]

HDMEC = test: Cell proliferation assay (crystal violet), HDMEC; format: cell-based; conditions: 72 hours, OD 595 nm
Method: (§1) In order to further confirm the surprising results described above, the compounds were tested in a cell proliferation assay. Crystal violet was used to measure cell proliferation; this basic dye stains cell nuclei and provides a sensitive, rapid evaluation. Light absorption of unstained or destained cell layers is negligible, making it possible to perform cell number measurements in wells. Six cell types (HUVEC, HDMEC, SMC, Fibroblast, A375 and RENCA) were plated and treated with the compounds in a log2 titration for 72 hours. The optimal cell number for each cell type was determined and optical density (OD) was measured at 595 nm. Each data point was measured in quadruplicate. The assay was stopped after 72 hours and subsequently analyzed. The OD-value of the plated cells before addition of the compounds was subtracted from all OD-values obtained after treatment. The percentage in relation to control proliferation was then calculated. Negative values therefore represent a count of fewer cells than were plated. The IC50 is given below in Table 1. Results are shown as a percentage in relation to the control proliferation. The IC50 were calculated using GraphPad Prism software (GraphPad Software, Inc.). Perhexiline results are depicted graphically in FIGS. 4A-4C and Erythromycin results in FIGS. 5A-5C.

Fibroblast = test: Cell proliferation assay (crystal violet), Fibroblast; format: cell-based; conditions: 72 hours, OD 595 nm
Method: as §1

B16F10 cells = test: Cell viability of B16F10 cells; format: cell-based; conditions: Mus musculus, B16-F10; after 24 and 48 hours incubation
Method: A cell viability assay based on cellular reduction of resazurin to the fluorescent product resorufin was performed. Viable cells can metabolize and reduce the dye, whereas dead cells rapidly lose the capacity to do so, making the increase in fluorescence directly proportional to the number of viable cells. The tested compounds were added in a log2 titration and viable cells were analyzed 24 hours after treatment. The fluorescence was determined at an excitation wavelength of 560 nm and an emission wavelength of 590 nm. The percentage of viable cells in relation to the untreated control proliferation was calculated. […] Perhexiline results are depicted graphically in FIGS. 6A-6C and Erythromycin results in FIGS. 7A-7C.
Through the two aforementioned assays it was determined that RENCA cells are more sensitive when treated with Perhexiline than the other cell types in the proliferation assay and in the viability assay. Therefore, the B16F10 cells were subsequently tested. The B16F10 tumor model, like the RENCA model, is an orthotopic tumor model.

HUVEC sprouting = test: Spheroid-based 3D angiogenesis assay (IC50, alone or with VEGFR-2 inhibitor); format: cell-based, human; conditions: Homo sapiens, HUVEC
From the text: Therefore, the assay was applied to test compounds alone or in combination with a VEGFR-2 inhibitor to address changes in IC50. […] The VEGFR-2 inhibitor was applied at a concentration close to the IC50.

[1] = tested on: Alexander cells (PLC/PRF/5) subcutaneous tumor; test: Hepato-Cellular Carcinoma Model (HCC) in vivo study, subcutaneous Alexander cells; parameters: species or system NMRI nu/nu mice
Method: Monolayers of Alexander cells can be grown in 85% Dulbecco's Modified Eagle's Medium (DMEM), 15% Fetal Bovine Serum (FBS), 4 mM L-glutamine, 100 units penicillinG/ml, and 100 μg of streptomycin-sulfate/ml. The cells can be cultured in a humidified atmosphere of 90% air and 10% carbon dioxide at 37° C. Media may preferably be changed every 4 days.
Six to eight week old female NMRI^−nu/nu mice could be utilized. The Alexander cells can be implanted in the left flank region of the mice, for example, by injecting 4×10^7 cells in 0.2 ml aliquots into the subcutaneous space of the left flank using a 29 G needle syringe. After inoculation the appearing subcutaneous tumours can be measured by callipering and multiplying the distances of all three dimensions.
Therapy can be initiated after the tumor size has reached a volume of approximately 100 mm^3 (day 1 of the study), and continue for about 21 days.
As shown, Group 1 would serve as control, where the animals would receive no further treatment after injection of Alexander cells.
After approximately 21 days of treatment, mice could be sacrificed and tumors collected and optionally stored appropriately at −80° C. For histological examination of the tumor vasculature, cryosections of the tissues (thickness of 5-10 μm) can be taken. For visualization of the blood vessels, immunohistochemical staining for CD 31 (PECAM-1) can be performed, and vessels counted microscopically using a defined magnification (×200).

SMILES: C1CCC(C(CC2CCCCN2)C2CCCCC2)CC1 (centres unmarked) [Perhexiline, Perhexiline maleate]
- IC50 (HUVEC): 10 µM
- IC50 (HDMEC): 11 µM
- IC50 (Fibroblast): 12 µM
- IC50 (B16F10 cells): 10 µM
- IC50 (HUVEC sprouting; compound alone, read-out: IC50 3D angiogenesis assay without VEGFR-2 inhibitor): 5.4 µM
- IC50 (HUVEC sprouting; read-out: IC50 in vitro 3D sprouting of HUVEC): 1.5 µM
- tumor growth compared to control ([1]; subcutaneous Alexander cell tumors in mice, about 21 days of treatment, FIGS. 28-30): reduced
- vessel density ([1]; tumor vasculature, FIG. 36): significant effect on vessel density
